Measured values as given in patent US8835462B2, “Macrocyclic picolinamides as fungicides” (Dow AgroSciences LLC, priority 2012, dated 2014).
Read-outs that look alike come from different tables or passages of the source.

Assays:
Assay type in all cases: in vivo
Erysiphe cichoracearum = test: Powdery mildew of cucumber (ERYSCI) fungicidal activity; conditions: Golovinomyces cichoracearum, 24 h, 1 Day Protectant, read-out: Disease Control ERYSCI 1DP
Procedure: Technical grades of materials were dissolved in acetone, which were then mixed with nine volumes of water containing 110 ppm Triton X-100. The fungicide solutions were applied onto wheat seedlings using an automated booth sprayer to run-off. All sprayed plants were allowed to air dry prior to further handling. Wheat plants (variety Yuma) were grown from seed in a greenhouse in 50% mineral soil/50% soil-less Metro mix until the first leaf was fully emerged, with 7-10 seedlings per pot. These plants were inoculated with an aqueous spore suspension of Septoria tritici either prior to or after fungicide treatments. After inoculation the plants were kept in 100% relative humidity (one day in a dark dew chamber followed by two to three days in a lighted dew chamber at 20° C.) to permit spores to germinate and infect the leaf. The plants were then transferred to a greenhouse set at 20° C. for disease to develop. When disease symptoms were fully expressed on the 1st leaves of untreated plants, infection levels were assessed on a scale of 0 to 100 percent disease severity. Percent disease control was calculated using the ratio of disease severity on treated plants relative to untreated plants. Evaluation of Fungicidal Activity: Powdery Mildew of Cucumber (Erysiphe cichoracearum; Bayer Code […]) Cucumber seedlings (variety Bush Pickle) were grown in soil-less Metro mix, with one plant per pot, and used in the test when 12 to 14 days old. Plants were inoculated with a spore suspension 24 hr following fungicide treatments. After inoculation the plants remained in the greenhouse set at 20° C. until disease was fully expressed. Fungicide formulation, application and disease assessment on the sprayed leaves followed the procedures as described in the Example A.

Leptosphaeria nodorum = test: Wheat glume blotch (LEPTNO) fungicidal activity; conditions: Parastagonospora nodorum, 24 h, 1 Day Protectant, read-out: Disease Control LEPTNO 1DP
Procedure: Technical grades of materials were dissolved in acetone, which were then mixed with nine volumes of water containing 110 ppm Triton X-100. The fungicide solutions were applied onto wheat seedlings using an automated booth sprayer to run-off. All sprayed plants were allowed to air dry prior to further handling. Wheat plants (variety Yuma) were grown from seed in a greenhouse in 50% mineral soil/50% soil-less Metro mix until the first leaf was fully emerged, with 7-10 seedlings per pot. These plants were inoculated with an aqueous spore suspension of Septoria tritici either prior to or after fungicide treatments. After inoculation the plants were kept in 100% relative humidity (one day in a dark dew chamber followed by two to three days in a lighted dew chamber at 20° C.) to permit spores to germinate and infect the leaf. The plants were then transferred to a greenhouse set at 20° C. for disease to develop. When disease symptoms were fully expressed on the 1st leaves of untreated plants, infection levels were assessed on a scale of 0 to 100 percent disease severity. Percent disease control was calculated using the ratio of disease severity on treated plants relative to untreated plants. Evaluation of Fungicidal Activity: Wheat Glume Blotch (Leptosphaeria Nodorum; Bayer Code […]) Wheat plants (variety Yuma) were grown from seed in a greenhouse in 50% mineral soil/50% soil-less Metro mix until the first leaf was fully emerged, with 7-10 seedlings per pot. These plants were inoculated with an aqueous spore suspension of Leptosphaeria nodorum 24 hr after fungicide treatments. After inoculation the plants were kept in 100% relative humidity (one day in a dark dew chamber followed by two days in a lighted dew chamber at 20° C.) to permit spores to germinate and infect the leaf. The plants were then transferred to a greenhouse set at 20° C. for disease to develop. Fungicide formulation, application and disease assessment followed the procedures as described in the Example A.

Puccinia triticina = test: Wheat brown rust (PUCCRT) fungicidal activity on wheat seedlings
Procedure, shortened: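 Compounds in acetone diluted with nine volumes water containing 110 ppm Triton X-100, sprayed to run-off on first-leaf Yuma wheat seedlings inoculated with P. triticina spores before or after treatment. Dark dew room 22° C, 100% RH overnight, then greenhouse 24° C; percent disease control from severity (0-100%) relative to untreated plants.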

Alternaria solani = test: Tomato early blight (ALTESO) fungicidal activity; conditions: 24 h, 1 Day Protectant, read-out: Disease Control ALTESO 1DP
Procedure: Technical grades of materials were dissolved in acetone, which were then mixed with nine volumes of water containing 110 ppm Triton X-100. The fungicide solutions were applied onto wheat seedlings using an automated booth sprayer to run-off. All sprayed plants were allowed to air dry prior to further handling. Wheat plants (variety Yuma) were grown from seed in a greenhouse in 50% mineral soil/50% soil-less Metro mix until the first leaf was fully emerged, with 7-10 seedlings per pot. These plants were inoculated with an aqueous spore suspension of Septoria tritici either prior to or after fungicide treatments. After inoculation the plants were kept in 100% relative humidity (one day in a dark dew chamber followed by two to three days in a lighted dew chamber at 20° C.) to permit spores to germinate and infect the leaf. The plants were then transferred to a greenhouse set at 20° C. for disease to develop. When disease symptoms were fully expressed on the 1st leaves of untreated plants, infection levels were assessed on a scale of 0 to 100 percent disease severity. Percent disease control was calculated using the ratio of disease severity on treated plants relative to untreated plants. Evaluation of Fungicidal Activity: Tomato Early Blight (Alternaria Solani; Bayer Code […]) Tomato plants (variety Outdoor girl) were propagated in soil-less Metro mix, with each pot having one plant, and used when 12 to 14 days old. Test plants were inoculated with an aqueous spore suspension of Alternaria solani 24 hr after fungicide treatments. After inoculation the plants were kept in 100% relative humidity (one day in a dark dew chamber followed by two to three days in a lighted dew chamber at 20° C.) to permit spores to germinate and infect the leaf. The plants were then transferred to a growth room at 22° C. for disease to develop. Fungicide formulation, application and disease assessment on the sprayed leaves followed the procedures as described in the Example A.

[1] = 24 h, 1 Day Protectant, read-out: Disease Control PUCCRT 1 DP
[2] = 72 h, 3 Day Curative, read-out: Disease Control PUCCRT 3 DC

In the case of `COc1ccnc(C(=O)N[C@H]2COC[C@H](Cc3ccccc3)[C@@H](OCCCc3ccccc3)[C@H](C)OC2=O)c1OCOC(C)=O` [Compound 34], the pest or weed control at 100 ppm (Erysiphe cichoracearum) is reported as 0 to 80%, the pest or weed control at 100 ppm (Leptosphaeria nodorum) is reported as 80 to 100% and the pest or weed control at 100 ppm (Puccinia triticina; [1]) is reported as 80 to 100%. The pest or weed control at 100 ppm (Puccinia triticina; [2]) was 80 to 100% and the pest or weed control at 100 ppm (Alternaria solani) was 80 to 100%.

Compound `COc1ccnc(C(=O)N[C@H]2COC[C@H](Cc3ccccc3)[C@@H](OC)[C@H](C)OC2=O)c1OCOC(C)=O` [Compound 39] has a pest or weed control at 100 ppm (Erysiphe cichoracearum) of 0 to 80%, a pest or weed control at 100 ppm (Leptosphaeria nodorum) of 80 to 100% and a pest or weed control at 100 ppm (Puccinia triticina; [1]) of 80 to 100%. It also gave a pest or weed control at 100 ppm (Puccinia triticina; [2]) of 80 to 100% and a pest or weed control at 100 ppm (Alternaria solani) of 0 to 80%.

Compound `COc1ccnc(C(=O)N[C@H]2COC[C@H](Cc3ccccc3)[C@@H](OCC(F)F)[C@H](C)OC2=O)c1OCOC(C)=O` [Compound 44] has a pest or weed control at 100 ppm (Erysiphe cichoracearum) of 0 to 80%, a pest or weed control at 100 ppm (Leptosphaeria nodorum) of 80 to 100% and a pest or weed control at 100 ppm (Puccinia triticina; [1]) of 80 to 100%. It also gave a pest or weed control at 100 ppm (Puccinia triticina; [2]) of 80 to 100% and a pest or weed control at 100 ppm (Alternaria solani) of 0 to 80%.

`COC(=O)/C=C/O[C@@H]1[C@@H](Cc2ccccc2)COC[C@H](NC(=O)c2nccc(OC)c2OCOC(C)=O)C(=O)O[C@H]1C` [Compound 36] was tested, and the pest or weed control at 100 ppm (Erysiphe cichoracearum) was 0 to 80%, the pest or weed control at 100 ppm (Leptosphaeria nodorum) was 80 to 100% and the pest or weed control at 100 ppm (Puccinia triticina; [1]) was 80 to 100%. For the same compound, the pest or weed control at 100 ppm (Puccinia triticina; [2]) was 80 to 100% and the pest or weed control at 100 ppm (Alternaria solani) was 0 to 80%.

With `COc1ccnc(C(=O)N[C@H]2COC[C@H](Cc3ccccc3)[C@@H](OCC(C)C)[C@H](C)OC2=O)c1OC(C)=O` [Compound 9, 2-(((3S,7S,8R,9S)-7-benzyl-8-isobutoxy-9-methyl-2-oxo-1,5-dioxonan-3-yl)carbamoyl)-4-methoxypyridin-3-yl acetate] the pest or weed control at 100 ppm (Erysiphe cichoracearum) was 80 to 100%, the pest or weed control at 100 ppm (Leptosphaeria nodorum) was 80 to 100% and the pest or weed control at 100 ppm (Puccinia triticina; [1]) was 80 to 100%. For the same compound, the pest or weed control at 100 ppm (Puccinia triticina; [2]) was 80 to 100% and the pest or weed control at 100 ppm (Alternaria solani) was 80 to 100%.

`COc1ccnc(C(=O)N[C@H]2COC[C@H](Cc3ccccc3)[C@@H](OCC(C)C)[C@H](C)OC2=O)c1OCOC(C)=O` [Compound 8, (2-((3S,7S,8R,9S)-7-benzyl-8-isobutoxy-9-methyl-2-oxo-1,5-dioxonan-3-ylcarbamoyl)-4-methoxypyridin-3-yloxy)methyl acetate] was tested, and the pest or weed control at 100 ppm (Erysiphe cichoracearum) was 80 to 100%, the pest or weed control at 100 ppm (Leptosphaeria nodorum) was 80 to 100% and the pest or weed control at 100 ppm (Puccinia triticina; [1]) was 80 to 100%. It also gave a pest or weed control at 100 ppm (Puccinia triticina; [2]) of 80 to 100% and a pest or weed control at 100 ppm (Alternaria solani) of 80 to 100%.
